Assay results from article PMC8333425, “Discovery of a dual Ras and ARF6 inhibitor from a GPCR endocytosis screen” (Nature Communications, 2021).
Where “and” joins values, the source holds several entries; their conditions need not be identical. Equal entries are not always repeated.

Molecular target: K-Ras (Homo sapiens, UniProt P01116)
Assay: Ras BRET sensor in cells overexpressing WT K-Ras and AT1R
Assay type: cell-based
Set-up: expressed in transfected cells; host or cells: HEK293SL
Source text: Because Tyr32 and Tyr40, located on the switch I domain of Ras, are critical for stabilizing Rasarfin binding through interactions with both the chlorine and isopropyl moiety (Fig. 7a, c), we reasoned that substituting them for Ala residues would negatively impact Rasarfin’s inhibitory action on Ras. […] Because we wanted to assess the inhibitory action of Rasarfin over different Ras subtypes, we mutated the two tyrosine residues to an alanine in K-Ras (Y32A, Y40A, and Y32A/Y40A mutants) within the same Rasarfin binding site found in H-Ras (Lys^5-Thr^74). This domain and residues are perfectly conserved among the Ras family members[44],[45]. WT K-Ras and K-Ras mutants were overexpressed along with AT1R in cells and AngII-mediated activation of Ras was assessed using the Ras BRET sensor (Supplementary Fig. 11a).
HEK293SL cells were seeded at a density of 7.5 × 10^5 cells per 100-mm dish and 24 h later, transiently transfected as such. For receptor internalization experiments, cells were transfected with 0.12 μg AT1R-RlucII, B2R-RlucII, or β2AR-RlucII and 0.48 μg of either rGFP-CAAX (to assess removal from the PM) or rGFP-FYVE (to assess accumulation in the endosomes). For β-arrestin recruitment assays, cells were transfected with 0.48 μg of receptor-YFP along with 0.12 μg of β-arrestin-RlucII. […] For kinetics of β-arrestin recruitment or β-arrestin binding to receptor and AP-2 experiments, cells were serum starved for 30 min, pretreated with 21 (50 µM) or Barbadin (100 µM) for 30 min, stimulated with 100 nM AngII or 1 µM BK and BRET signals were monitored at indicated times using a Victor X Light plate reader (PerkinElmer). […] The BRET ratio was determined by calculating the ratio of the light emitted by YFP over the light emitted by the RlucII. […] For the kinetics of GTPase and PI3K/Akt activation, cells were serum starved, pretreated with 21 (50 µM) or Wortmannin (200 nM) for 30 min, stimulated with ligand (100 nM AngII or 100 ng/ml EGF) and BRET signals were monitored at indicated times. […]

Sequence of K-Ras (P01116 1-188 isoform P01116-2): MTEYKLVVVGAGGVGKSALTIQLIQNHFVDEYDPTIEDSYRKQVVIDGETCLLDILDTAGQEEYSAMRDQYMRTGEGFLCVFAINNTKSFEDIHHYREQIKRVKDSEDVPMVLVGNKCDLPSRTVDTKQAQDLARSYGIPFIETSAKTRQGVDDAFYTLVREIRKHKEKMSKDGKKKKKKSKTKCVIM

## CC(C)C(=O)N1CCN(c2ccc(NC(=O)c3cc4ccccc4o3)cc2Cl)CC1 [Compound 21]
50 μM
  AngII-mediated activation of WT K-Ras (Ras BRET sensor): only WT was significantly inhibited by Rasarfin
Rasarfin 50 μM, K-Ras WT
  AngII-promoted BRET: 0.0405 and 0.05833 and 0.04947 and 0.058
Rasarfin 50 μM, K-Ras WT, Bonferroni's multiple comparisons test
  AngII-promoted BRET, Mean Diff. DMSO - Rasarfin: 0.04859
